No end group written: not given here.
B1: Spa38: pRb2/p130 amino acids 641 to 702 (62 amino acids long), SEQ ID NO:1 (protein, listed as Homo sapiens)
chain: LTPRRVTEVRADTGGLGRSITSPTTLYDRYSSPPASTTRRRLFVENDSPSDGGTPGRMPPQP
B2: Spc: pRb2/p130 spacer fragment, amino acids 755-828, 73 amino acids (protein)
chain: GGITFFPVQVNVGGQAQAVTGSIQPLSAQALAGSLSSQQVTGTTLQVPGQVAIQQISPGGQQQKQGQSVTSSSN
modifications: left off: a dimerising Fc or GST
notes: pRb2/p130 spacer fragment, amino acids 755-828, 73 amino acids
B3: Spa: pRb2/p130 spacer fragment, amino acids 616-711, 96 amino acids (protein)
chain: VPTCEEVMPPQNLERADEICIAGSPLTPRRVTEVRADTGGLGRSITSPTTLYDRYSSPPASTTRRRLFVENDSPSDGGTPGRMPPQPLVNAVPVQN
modifications: left off: a dimerising Fc or GST
B4: Spa23: Table 1 construct: pRb2/p130 spacer fragment, amino acids 641-711, 71 amino acids (protein)
chain: LTPRRVTEVRADTGGLGRSITSPTTLYDRYSSPPASTTRRRLFVENDSPSDGGTPGRMPPQPLVNAVPVQN
modifications: left off: a dimerising Fc or GST

Biological target: cdk2
Experiment: in vitro cdk2 kinase assay with GST-fusion proteins, histone H1 substrate
Format: biochemical
Set-up: key to Kinase assay (inhibitory effect on cdk2 activity): P=positive; N=negative
Conditions: for Kinase assay (inhibitory effect on cdk2 activity): 0.1 μg GST-fusion protein, cdk2 immunoprecipitated from NIH/3T3; for inhibitory effect on cdk2 activity / histone H1 phosphorylation in vitro: GST-fusion protein added to cdk2 immunoprecipitate from NIH/3T3
Protocol: Constructs preparation: A prokaryotic expression vector pGEX-2T (Stratagene Inc., La Jolla Calif.) and polymerase chain reaction (PCR) were used to generate chimeric Glutathione-S-Transferase constructs. The primers used by PCR to amplify the fragments that were subcloned in the pGEX-2T were derived from the 5′ and 3′ ends of different regions of the spacer domain of […]. The mammalian expression vector pEF6/V5-His TOPO (Invitrogen Corp, Carlsbad, Calif.) was used to generate the constructs pEF6/V5-His-spacer and pEF6/V5-His-310 that express the correspondent genes with a C-terminal V5 epitope. The spacer and the 310 fragments were PCR-amplified with the respective primers (Table 1) to generate 3′ends of the cDNAs without stop codons and were subsequently subcloned into pEF6/V5-His TOPO (Invitrogen Corp, Carlsbad, Calif.) according to the manufacturer's instructions to obtain cDNAs coding for C-terminal fusion proteins. All generated constructs were confirmed by automated sequencing. Information regarding the primers is available upon request.
GST Fusion protein preparation: XL1-Blue bacteria carrying the pGEX-2T vectors were grown to mid log phase and then induced to express protein by adding 0.25 mM of isopropyl-1-thio-β-D-galactopyranoside (IPTG, Roche Applied Science, Indianapolis, Ind.). The cultures were shaken for 4 h; bacteria were then pelleted and resuspended in NENT buffer (20 mM Tris pH 8, 100 mM NaCl, 1 mM EDTA, 0.5% NP-40). Cell suspensions were sonicated, pelleted and the supernatant collected. The remaining bacteria were then resuspended in NENT buffer plus 2% of N-Lauryl-Sarcosine, pelleted and the supernatants were collected again. The combined supernatants were incubated with Glutathione agarose (Amersham Biosciences, Piscataway, N.J.) overnight at 4° C. The agarose was then pelleted and washed three times in NENT buffer.
Kinase assays: Cell lysates from NIH/3T3 were prepared by resuspending pelleted cells in 500 μl of lysis buffer (50 mM Tris, 5 mM EDTA, 250 mM NaCl, 50 mM NaF, 0.1% Triton, 0.1 mM Na3VO4, plus protease inhibitors). An equal amount of protein for each fraction (100 μg) was immunoprecipitated with a polyclonal anti-cdk2 antibody (De Luca et al., 1997, J Biol Chem, 272, 20971-4). The complexes were pulled down with protein A-Sepharose and washed three times with lysis buffer and twice with lysis buffer containing 400 mM NaCl. The complexes were equilibrated in kinase assay buffer (20 mM HEPES pH 7.4, 10 mM MgAc, […], 1 mM DTT). In order to detect the in vitro inhibition of cdk2 activity, each sample was incubated with an equal amount (0.1 μg) of each pGEX-2T fusion protein, in a final volume of 20 μl of kinase buffer, using 5 μCi/sample of γ-ATP (Amersham Biosciences, Piscataway, N.J.) and 2 μg of Histone H1 for 30 minutes at 30° C. Kinase assays were repeated at least three times, giving an inter assay standard deviation within 10% after normalization for protein amount. In order to evaluate the in vivo inhibition of cdk2 activity, cdk2 was immunoprecipitated, as described above, from NIH/3T3 cells transiently transfected with 5 μg of pEF6/V5-spacer, pEF6/V5-Spa310 or the vector alone as a control. The immunocomplexes were split in two tubes. A half of each sample was assayed for cdk2 activity in a final volume of 20 μl of kinase buffer with 5 μCi/sample of γ-ATP and 2 μg of Histone H1 for 30 min. at 30° C.; the second one was tested in western blot analysis to confirm that all the samples contained the amount of cdk2 immunoprecipitated. Briefly the samples were separated into 12% SDS polyacrylamide gels (SDS-PAGE), and then transferred into a nitrocellulose membrane (Schleicher & Schuell, Germany). The membrane was blocked with 5% non-fat dry milk in 1×TBST and incubated with the polyclonal anti-cdk2 antibody described above. […]

Row | Molecule | Kinase assay (inhibitory effect on cdk2 activity) | inhibitory effect on cdk2 activity / histone H1 phosphorylation in vitro
1 | Spa1: pRb2/p130 spacer fragment, amino acids 616-642, 27 amino acids (VPTCEEVMPPQNLERADEICIAGSPLT; cysteine pairing not given here; also: fused to dimerising Fc or GST) | N | little or no inhibitory effect
2 | Spa2: pRb2/p130 spacer fragment, amino acids 641-666, 26 amino acids (LTPRRVTEVRADTGGLGRSITSPTTL; UniProt Q08999 641-666, looked up, fragment) | N | little or no inhibitory effect
3 | Spa3: pRb2/p130 spacer fragment, amino acids 663-711, 49 amino acids (PTTLYDRYSSPPASTTRRRLFVENDSPSDGGTPGRMPPQPLVNAVPVQN; also: fused to dimerising Fc or GST) | N | little or no inhibitory effect
4 | Spa12: pRb2/p130 spacer fragment, amino acids 616-666, 51 amino acids (VPTCEEVMPPQNLERADEICIAGSPLTPRRVTEVRADTGGLGRSITSPTTL; cysteine pairing not given here; also: fused to dimerising Fc or GST) | N | –
5 | Spa72: Table 1 construct: pRb2/p130 spacer fragment, amino acids 652-711, 60 amino acids (DTGGLGRSITSPTTLYDRYSSPPASTTRRRLFVENDSPSDGGTPGRMPPQPLVNAVPVQN; also: fused to dimerising Fc or GST) | N | –
6 | Spa311: pRb2/p130 amino acids 641 to 682 (42 amino acids long), SEQ ID NO:2 (LTPRRVTEVRADTGGLGRSITSPTTLYDRYSSPPASTTRRRL; listed as Homo sapiens) | P | –
7 | Spa312: pRb2/p130 spacer fragment, amino acids 641-673, 33 amino acids (LTPRRVTEVRADTGGLGRSITSPTTLYDRYSSP; also: fused to dimerising Fc or GST) | N | –
8 | Spb: pRb2/p130 spacer fragment, amino acids 712-754, 43 amino acids (VSGETVSVTPVPGQTLVTMATATVTANNGQTVTIPVQGIANEN; also: fused to dimerising Fc or GST) | N | –
9 | B1 | P | –
10 | B2 | N | –
11 | B3 | P | inhibitory effect on histone H1 phosphorylation
12 | B4 | P | able to inhibit cdk2 activity
